In patent US9775902B2, “Compounds and methods for treatment of stroke” (FIBROGEN, INC, priority 2006, dated 2017):

Legend:
[1] = tested on: Wistar rats, transient occlusion of the middle cerebral artery; test: Rat model of transient middle cerebral artery occlusion (tMCAO): infarct volume and edema at 48 hours; type: in vivo
Source text: The effect of compounds of the present invention on infarct volume and edema was examined in an animal model of ischemic stroke. For these studies, male Wistar rats (320 g) were subjected to transient occlusion of the middle cerebral artery. Rats were anesthetized with 3% isoflurane in oxygen. Aseptic technique was used for all procedures during these studies. The surgical site was clipped and cleaned with alcohol and surgical scrub. Each animal was placed on a warm water heating pad to maintain body temperature. A paramedian incision was made on the neck over the carotid artery. The tissue was bluntly dissected away to reveal the carotid artery and the carotid artery bifurcation. Sutures were placed around the proximal portion of the common carotid and the external carotid arteries and were then tied off. An incision was made in the common carotid, distal to the ligation and a pre-prepared filament (3-0 monofilament suture or like material) was placed in the carotid and advanced into the internal carotid artery. The filament was advanced approximately 20 millimeters past the carotid bifurcation until slight resistance was felt as it wedged inside the middle cerebral artery (MCA). Care was taken to not rupture the artery upon insertion of the filament. The filament was tied in place and the skin incision closed. At this time isoflurane was discontinued and the animals were allowed to awaken.
One hour after surgery, the success of MCA occlusion was assessed using the Bederson scale, as previously described. (See Bederson et al., (1986) Stroke, 17:1304-1308.) Sixty minutes after occlusion, the animals were re-anesthetized for reperfusion. The skin incision was reopened and the filament was carefully withdrawn from the MCA but not completely removed. Body temperature was taken every 15 minutes throughout the study to maintain normothermia. Animals that have undergone the MCA occlusion procedure may have difficulty in thermoregulation for a few hours after surgery. Animals were placed in a cooling or heating box as determined by their body temperature. Body temperature was maintained at 37.5° C.
Various compounds of the present invention were administered by oral gavage (p.o.) at reperfusion or at reperfusion and again at 24 hours after reperfusion in 0.5% CMC and 0.1% Polysorbate 80 at various doses (see Table 10 below). Forty-eight hours after MCA occlusion animals were euthanized with CO2 and their brains removed. After removal, the brain was sliced into 7 coronal sections, 2 mm thick. The sections were placed rostral side down in a petri dish and stained with 1% Triphenyl tetrazolium chloride for 20 minutes at 37° C. for determination of infarct volume. Brain sections were then digitally photographed and analyzed for changes in infarct volume and extent of edema. Infarct volumes were determined by measuring the infarcted (i.e., non-stained) areas of each brain section and multiplying this value by the section thickness. Extent of edema was determined by the net increase in volume of the ipsilateral cortex compared to that of the contralateral cortex of brain sections.

erythropoietin = test: Plasma EPO in mice after intravenous injection; type: in vivo, Swiss Webster mice; details: mouse plasma, 20 mg/kg i.v., four hours after injection; for fold induction at 20 mg/kg: iv, 4 h, read-out: EPO Fold Increase; for EPO: mouse EPO ELISA kit (**)
In short: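 Male Swiss Webster mice (29-34 g) received 20 mg/kg compound or vehicle by tail-vein injection in 5% dextrose with equimolar NaOH or meglumine. Plasma was collected 4 h later, and EPO and VEGF were measured by ELISA.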

[2] = p.o. 6 mg/kg at reperfusion, 48 hours after MCA occlusion
[3] = 1 Dose 60 mg/kg p.o. at reperfusion
[4] = 2 Doses 60 mg/kg p.o., at reperfusion and 24 hours later
[5] = p.o. 60 mg/kg at reperfusion, 48 hours after MCA occlusion

SMILES | Percent Reduction in Edema [1, 2] [%] | Percent Reduction in Infarct Volume [1, 2] [%] | fold induction at 20 mg/kg (erythropoietin) | EPO (erythropoietin) [pg/mL] | Percent Reduction in Edema [1, 3] [%] | Percent Reduction in Infarct Volume [1, 3] [%] | Percent Reduction in Edema [1, 4] [%] | Percent Reduction in Infarct Volume [1, 4] [%] | Percent Reduction in Edema [1, 5] [%] | Percent Reduction in Infarct Volume [1, 5] [%]
N#Cc1nc(C(=O)NCC(=O)O)c(O)c2c(Oc3ccc(F)cc3)cccc12 [Compound AS, {[1-Cyano-5-(4-fluoro-phenoxy)-4-hydroxy-isoquinoline-3-carbonyl]-amino}-acetic acid] | 32 | 58 | 102 | 49305 | – | – | – | – | – | –
Cc1cccc(C)c1Oc1ccc2c(C#N)nc(C(=O)NCC(=O)O)c(O)c2c1 [Compound AL, {[1-Cyano-6-(2,6-dimethyl-phenoxy)-4-hydroxy-isoquinoline-3-carbonyl]-amino}-acetic acid] | 12 | 51 | 188 | 22514 | – | – | – | – | – | –
COc1ccc(Oc2ccc3c(O)c(C(=O)NCC(=O)O)ncc3c2)cc1 [Compound F, {[4-Hydroxy-7-(4-methoxy-phenoxy)-isoquinoline-3-carbonyl]-amino}-acetic acid] | – | – | 254 | 2283 | 28 | 42 | 39 | 70 | 39 | 70
